Test results as given in ChEMBL document CHEMBL1132056, “First hydroxamate inhibitors for carboxypeptidase A. N-acyl-N-hydroxy-beta-phenylalanines” (Bioorg Med Chem Lett, 1999).

Molecular target: T1, Carboxypeptidase A1 (Homo sapiens, UniProt P15085)
T1 sequence (P15085 whole entry): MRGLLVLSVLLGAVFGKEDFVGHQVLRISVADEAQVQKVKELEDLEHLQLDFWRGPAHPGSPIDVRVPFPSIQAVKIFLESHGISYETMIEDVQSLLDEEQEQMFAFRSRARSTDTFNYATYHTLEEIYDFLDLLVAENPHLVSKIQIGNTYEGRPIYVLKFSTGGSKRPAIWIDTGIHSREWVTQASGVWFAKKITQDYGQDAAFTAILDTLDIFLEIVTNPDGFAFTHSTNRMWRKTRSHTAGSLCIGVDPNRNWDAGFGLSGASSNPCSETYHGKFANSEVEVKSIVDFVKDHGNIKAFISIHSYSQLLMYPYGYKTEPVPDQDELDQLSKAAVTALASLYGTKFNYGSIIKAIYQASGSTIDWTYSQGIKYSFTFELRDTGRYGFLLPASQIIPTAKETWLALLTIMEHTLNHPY
Test: Compound was tested for its inhibitory activity against carboxypeptidase A (CPA)

| Ki [nM] | SMILES |
| --- | --- |
| 560 | O=CN(O)C[C@@H](Cc1ccccc1)C(=O)O |
| 6500 | O=C(O)C(Cc1ccccc1)CN(O)C(=O)c1ccccc1 (centres undefined) |
| 320 | O=C(O)C(Cc1ccccc1)CN(O)C(=O)Cc1ccccc1 (centres undefined) |
| 5820 | CCC(=O)N(O)CC(Cc1ccccc1)C(=O)O (centres undefined) |
| 4950 | O=CN(O)C[C@H](Cc1ccccc1)C(=O)O |
| 980 | O=CN(O)CC(Cc1ccccc1)C(=O)O (centres undefined) |
| 1160 | O=C(O)C(Cc1ccccc1)CN(O)C(=O)CCCc1ccccc1 (centres undefined) |
| 5900 | CC(=O)N(O)CC(Cc1ccccc1)C(=O)O (centres undefined) |
| 1200 | O=C(O)C(Cc1ccccc1)CN(O)C(=O)CCc1ccccc1 (centres undefined) |
